From patent US20140274682A1, “COMPOSITIONS AND METHODS FOR REDUCING DUST AND REPELLING, CONTROLLING, OR DIRECTING AN INSECT” (priority 2013, published 2014) come the findings set out here.

SMILES strings stand for the structures.

The test system of data set [1] is honeybees. Nature of the data set: Honeybee repulsion experiment at feeding stations. As to conditions: 2% by weight with 50% sucrose solution in feeder. The format is in vivo. As to the method: FIG. 5 describes the feeding station arrangement (A and B) for the honeybee repulsion experiments described herein. As set forth in […], panel (A) sets forth the bee cage positions on the left portion of panel (A) with the randomized feeding station positions on the right portion of panel (A). Panel (B) sets forth an alignment of the randomized feeding station positions with a distance of two meters between feeding stations. A total of eight feeding stations were evaluated at a ten meter distance in front of the respective bee hives. The feeding stations were placed two meters apart from one another.
Honeybees were trained to deep feeders (eight positions), each containing a 50% sucrose solution for one day. After the honeybees were trained to each feeder, the 50% sucrose feeder at randomized positions 1-8 was replaced with a shallow feeder containing a combination of repelling compounds and a 50% sucrose solution according to Table 9. In accordance with FIGS. 5 and 6, 2% by weight of Camphor oil (T4), Ajowan oil (T5), Camphor powder (T6), Rosemary oil (T7), and 2-Decanone (T8) in combination with a 50% sucrose treatment were added to feeders on day two.
Table 9 describes active agents evaluated for bee repulsion and their randomized feeding station positions. As described in […], T1 (control), T2 (control), T3 (control), T4 (Camphor oil), T5 (Ajowan oil), T6 (Camphor powder), T7 (Rosemary oil), and T8 (2-Decanone).
FIG. 5 evaluates the number of bees visiting a respective feed station over a time interval. FIG. 6 sets forth the mean number of honeybees visiting feeding station over a period of four hours.

Data set [2] is described as follows: Stability test of Poncho 600 with Eugenol, clothianidin content by HPLC. The format is physicochemical. As to conditions: in Poncho combined with Eugenol; up to 54° C. for seven days. As to the method:
Table 10 describes a stability test with a combination of Eugenol and Poncho evaluated at room temperature, 40° C., and 54° C. at zero time, 3 days, and 7 days as confirmed by high performance liquid chromatography (HPLC).

A short description of data set [3]: Stability test of Poncho 600 with α-terpineol, clothianidin content by HPLC. It is filed as physicochemical. As to conditions: in Poncho combined with α-terpineol; up to 54° C. for eight days. As to the method: Table 11 describes a stability test with a combination of α-terpineol and Poncho 600 evaluated at room temperature, 40° C., and 54° C. at zero time, 2 days, and 8 days as confirmed by HPLC.

With `CCCCCCCCC(C)=O` [Compound 2-Decanone, 2-decanone (methyl-n-octyl ketone)], the entries for the “Repellency to honeybees at 24 hours” value in data set [1] and in data set [1] (listed as 2-decanone) were “exhibited repellency” and “still repellent”, respectively. Besides, in data set [1] (full 4 hour assessment period), the “Repellency to honeybees over the 4 hour assessment period” value is on record as “highly repellent”.
On to `CN/C(=N\[N+](=O)[O-])NCc1cnc(Cl)s1` [clothianidin], for which the “Chemical stability of clothianidin content” value in data set [2] and in data set [3] was “exhibited chemical stability” in each case.
